Columns and labels:
[1] = Absolute systemic availability and lung deposition of inhaled budesonide (plasma LC-MS); format: in vivo, healthy subjects; details: for Cmax / Tmax: human, plasma, inhaled or intranasal, 1 mg, 1 mg inhaled; for absolute systemic availability (geometric mean): 1 mg as five inhalations of 200 micrograms, vs 0.5 mg intravenously; for amount deposited and absorbed in the lung (geometric mean, range): calculated assuming 13% availability of swallowed budesonide
Method: In order to determine the absolute systemic availability and the amount of budesonide deposited and absorbed in the lung after inhalation via TURBUHALER and via an MDI, 24 healthy subjects were given budesonide 1 mg as five inhalations of 200 micrograms each, via TURBUHALER inhaler or via MDI, and 0.5 mg intravenously, on separate study days. Budesonide levels were determined in plasma by a LC-MS method. The amount of budesonide absorbed in the lung was calculated on the assumption of an availability of swallowed budesonide of 13%. Furthermore, absorption in the lung was calculated in 13 of the subjects after inhalation with concomitant oral dosing of charcoal to prevent absorption of budesonide from the gastrointestinal track. There was good conformity between the two modes of calculation.

[2] = generally regarded; cited from earlier work

| lung deposition from TURBUHALER relative to MDI ([1]; TURBUHALER versus MDI) | Cmax ([1]; via MDI) [nM] | Tmax ([1]; via MDI) [min] | Cmax ([1]; via TURBUHALER) [nM] | Tmax ([1]; via TURBUHALER) [min] | absolute systemic availability (geometric mean) ([1]; via MDI) [%] | amount deposited and absorbed in the lung (geometric mean, range) ([1]; via MDI) | absolute systemic availability (geometric mean) ([1]; via TURBUHALER) [%] | amount deposited and absorbed in the lung (geometric mean, range) ([1]; via TURBUHALER) | SMILES | dose regarded as equipotent to 0.25 mg of terbutaline sulphate [2] [mg] |
| --- | --- | --- | --- | --- | --- | --- | --- | --- | --- | --- |
| twice that from an MDI | 2.3 | 30 | 3.6 | 18 | 28 | 15% (3%-47%) | 38 | 32% (16%-59%) | CCCC1O[C@@H]2C[C@H]3[C@@H]4CCC5=CC(=O)C=C[C@]5(C)[C@H]4[C@@H](O)C[C@]3(C)[C@]2(C(=O)CO)O1 (stereo partly shown) [budesonide] | – |
| – | – | – | – | – | – | – | – | – | CC(C)(C)NCC(O)c1ccc(O)c(CO)c1 (stereo not shown) [salbutamol] | 0.1 |

From patent US6360743B1, “System for dispensing pharmaceutical active compounds” (AB Astra, priority 1992, dated 2002)
